# In patent US7592457B2 (Korea Research Institute of Chemical Technology, priority 2004, dated 2009):
# pIC50: −log10 of the molar value.
# Assays:
# [1] = molecular target: T1, human serotonin 5-HT6 receptor (Homo sapiens, UniProt P50406); assay: [3H]LSD binding at cloned 5-HT6 receptors; conditions: for pIC50: [3H]LSD 1.87 nM, cloned receptor membranes, 37° C., 60 min, read-out: IC50; for inhibition at 10 µM: read-out: Binding affinity (Inhibition rate % at 10 μM) 5HT6; for 5-HT6 affinity compared with known selective antagonists: in words
# T1 construct: made in house; host or cells: Sf21 insect cells (pBacPAK8 baculovirus vector)
# [2] = molecular target: D1 (Homo sapiens, UniProt P21728); assay: Radioligand binding for selectivity, D1; conditions: read-out: Binding affinity (Inhibition rate % at 10 μM) D1
# [3] = molecular target: T2, hD2L receptor (Homo sapiens, UniProt P14416); assay: Radioligand binding, dopamine D2 ([3H]spiperone); conditions: read-out: Binding affinity (Inhibition rate % at 10 μM) D2
# T2 construct: purchased BioSignal Packard Inc., Montreal, Canada
# Protocol: (§1) The radioligands used were [^3H] spiperone (for hD2L and hD3 receptors, 1 nM) and [^3H] YM-09151-2 (for hD4.2 receptor, 0.06 nM). Radioligand bindings were performed by the protocols provided by the supplier of receptor membranes (BioSignal Packard Inc., Montreal, Canada). Briefly, the buffer used in D2 or D3 receptor binding assay was 50 mM Tris-HCl (pH 7.4), 10 mM MgCl2, 1 mM EDTA, or 50 mM Tris-HCl (pH 7.4), 5 mM MgCl2, 5 mM EDTA, 5 mM KCl, 1.5 mM CaCl2, 120 mM NaCl, respectively. In [^3H] YM-09151-2 receptor binding assays, the buffer containing 50 mM Tris-HCl (pH 7.4), 5 mM MgCl2, 5 mM EDTA, 5 mM KCl and 1.5 mM CaCl2 was used. Nonspecific binding was determined with haloperidol (10 μM) or clozapine (10 μM) for D2 and D3, and D4 receptors, respectively. Competition binding studies were carried out with 7-8 concentrations of the test compound run in duplicate tubes, and isotherms from three assays were calculated by computerized nonlinear regression analysis (GraphPad Prism Program, San Diego, […]) to yield median inhibitory concentration (IC50) values.
# [4] = molecular target: T3, hD3 receptor (Homo sapiens, UniProt P35462); assay: Radioligand binding, dopamine D3 ([3H]spiperone); conditions: read-out: Binding affinity (Inhibition rate % at 10 μM) D3
# T3 construct: purchased BioSignal Packard Inc., Montreal, Canada
# Protocol: as §1
# [5] = molecular target: T4, hD4.2 receptor (Homo sapiens, UniProt P21917, DEL265-296); assay: Radioligand binding, dopamine D4 ([3H]YM-09151-2); conditions: read-out: Binding affinity (Inhibition rate % at 10 μM) D4
# T4 construct: purchased BioSignal Packard Inc., Montreal, Canada
# T4 sequence (P21917 with tags, fused parts or gaps DEL265-296): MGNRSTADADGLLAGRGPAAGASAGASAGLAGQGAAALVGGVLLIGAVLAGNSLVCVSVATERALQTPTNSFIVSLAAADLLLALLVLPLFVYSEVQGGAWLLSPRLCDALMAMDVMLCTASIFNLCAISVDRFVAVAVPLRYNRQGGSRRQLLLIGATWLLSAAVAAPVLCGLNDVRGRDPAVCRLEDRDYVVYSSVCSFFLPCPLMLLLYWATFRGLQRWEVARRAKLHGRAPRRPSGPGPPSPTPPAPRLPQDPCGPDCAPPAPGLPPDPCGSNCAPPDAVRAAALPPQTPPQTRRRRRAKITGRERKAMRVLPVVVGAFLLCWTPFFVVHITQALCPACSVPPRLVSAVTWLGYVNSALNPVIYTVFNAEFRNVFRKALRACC
# Protocol: as §1
# [6] = molecular target: T5, 5-HT1a (Homo sapiens, UniProt P08908); assay: Radioligand binding, 5-HT1a ([3H]8-OH-DPAT); conditions: read-out: Binding affinity (Inhibition rate % at 10 μM) 5HT1a
# T5 construct: purchased Euroscreen/BioSignal Packard Inc
# T5 sequence (P08908 1-422): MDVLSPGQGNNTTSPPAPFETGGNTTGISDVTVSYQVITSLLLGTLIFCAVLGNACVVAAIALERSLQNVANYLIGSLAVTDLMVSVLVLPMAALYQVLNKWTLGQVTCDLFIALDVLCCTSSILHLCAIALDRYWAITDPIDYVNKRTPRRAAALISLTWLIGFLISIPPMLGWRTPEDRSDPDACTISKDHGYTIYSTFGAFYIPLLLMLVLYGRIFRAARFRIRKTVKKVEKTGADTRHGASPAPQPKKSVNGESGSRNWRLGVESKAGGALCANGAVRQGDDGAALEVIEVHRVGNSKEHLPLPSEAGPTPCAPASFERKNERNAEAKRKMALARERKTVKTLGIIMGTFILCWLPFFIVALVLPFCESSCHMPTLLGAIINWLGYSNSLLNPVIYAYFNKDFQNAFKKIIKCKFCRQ
# Protocol: (§2) Radioligand bindings were performed according to the test method provided by the supplier of receptor membrane (Euroscreen/BioSignal Packard Inc.).
# [7] = molecular target: T6, 5-HT2a (Homo sapiens, UniProt P28223); assay: Radioligand binding, 5-HT2a ([3H]Ketanserin); conditions: read-out: Binding affinity (Inhibition rate % at 10 μM) 5HT2a
# T6 construct: purchased Euroscreen/BioSignal Packard Inc
# Protocol: as §2
# [8] = molecular target: T7, 5-HT2c (Homo sapiens, UniProt P28335); assay: Radioligand binding, 5-HT2c ([3H]Mesulergine); conditions: read-out: Binding affinity (Inhibition rate % at 10 μM) 5HT2c
# T7 construct: purchased Euroscreen/BioSignal Packard Inc
# T7 sequence (P28335 33-458): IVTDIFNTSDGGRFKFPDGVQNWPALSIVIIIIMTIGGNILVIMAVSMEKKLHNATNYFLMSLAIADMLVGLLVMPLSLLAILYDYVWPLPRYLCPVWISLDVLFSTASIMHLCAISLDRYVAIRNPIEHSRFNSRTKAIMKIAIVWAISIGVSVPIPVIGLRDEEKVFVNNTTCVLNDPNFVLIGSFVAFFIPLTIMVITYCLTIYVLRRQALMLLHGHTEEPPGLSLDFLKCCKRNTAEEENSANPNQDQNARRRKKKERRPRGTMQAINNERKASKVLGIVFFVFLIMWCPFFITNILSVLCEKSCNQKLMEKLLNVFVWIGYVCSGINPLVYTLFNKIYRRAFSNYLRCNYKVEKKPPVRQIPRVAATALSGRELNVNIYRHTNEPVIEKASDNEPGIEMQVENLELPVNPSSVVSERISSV
# Protocol: as §2
# [9] = molecular target: T8, 5-HT7 (Homo sapiens, UniProt P34969); assay: Radioligand binding, 5-HT7 ([3H]LSD); conditions: read-out: Binding affinity (Inhibition rate % at 10 μM) 5HT7
# T8 construct: purchased Euroscreen/BioSignal Packard Inc
# Protocol: as §2
# T1 sequence (P50406 whole entry): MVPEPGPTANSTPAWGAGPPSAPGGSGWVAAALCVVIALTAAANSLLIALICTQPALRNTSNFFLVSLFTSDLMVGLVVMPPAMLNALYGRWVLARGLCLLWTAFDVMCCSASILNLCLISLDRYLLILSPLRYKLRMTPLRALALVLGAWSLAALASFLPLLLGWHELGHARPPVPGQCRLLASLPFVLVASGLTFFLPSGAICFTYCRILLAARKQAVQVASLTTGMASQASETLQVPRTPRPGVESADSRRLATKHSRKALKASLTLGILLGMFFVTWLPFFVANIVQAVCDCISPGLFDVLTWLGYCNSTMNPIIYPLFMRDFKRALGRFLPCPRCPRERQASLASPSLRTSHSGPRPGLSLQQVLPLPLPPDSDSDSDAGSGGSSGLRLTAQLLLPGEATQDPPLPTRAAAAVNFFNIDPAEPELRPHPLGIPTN
# T3 sequence (P35462 whole entry): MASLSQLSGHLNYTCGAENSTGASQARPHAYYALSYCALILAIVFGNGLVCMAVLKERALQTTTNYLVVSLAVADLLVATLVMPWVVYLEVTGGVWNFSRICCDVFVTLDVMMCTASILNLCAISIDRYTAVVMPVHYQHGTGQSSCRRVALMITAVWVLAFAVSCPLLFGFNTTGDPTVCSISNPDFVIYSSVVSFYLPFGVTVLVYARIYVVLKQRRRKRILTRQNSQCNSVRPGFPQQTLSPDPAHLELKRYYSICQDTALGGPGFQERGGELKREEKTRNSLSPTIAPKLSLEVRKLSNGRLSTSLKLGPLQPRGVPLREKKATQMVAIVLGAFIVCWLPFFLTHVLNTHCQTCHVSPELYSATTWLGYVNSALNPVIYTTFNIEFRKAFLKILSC
# T2 sequence (P14416 whole entry): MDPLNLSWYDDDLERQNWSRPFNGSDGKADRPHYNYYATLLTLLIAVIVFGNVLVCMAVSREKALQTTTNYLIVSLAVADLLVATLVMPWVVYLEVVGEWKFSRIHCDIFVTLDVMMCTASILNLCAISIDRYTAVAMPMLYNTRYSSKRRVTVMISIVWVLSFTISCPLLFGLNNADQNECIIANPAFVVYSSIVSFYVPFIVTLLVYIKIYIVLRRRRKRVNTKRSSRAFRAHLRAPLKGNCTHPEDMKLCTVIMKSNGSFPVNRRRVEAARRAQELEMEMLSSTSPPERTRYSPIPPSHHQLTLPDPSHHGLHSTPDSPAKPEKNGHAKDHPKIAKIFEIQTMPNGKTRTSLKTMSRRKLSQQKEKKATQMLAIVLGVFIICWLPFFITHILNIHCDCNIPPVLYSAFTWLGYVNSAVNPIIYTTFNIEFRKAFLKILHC
# D1, sequence (P21728 whole entry): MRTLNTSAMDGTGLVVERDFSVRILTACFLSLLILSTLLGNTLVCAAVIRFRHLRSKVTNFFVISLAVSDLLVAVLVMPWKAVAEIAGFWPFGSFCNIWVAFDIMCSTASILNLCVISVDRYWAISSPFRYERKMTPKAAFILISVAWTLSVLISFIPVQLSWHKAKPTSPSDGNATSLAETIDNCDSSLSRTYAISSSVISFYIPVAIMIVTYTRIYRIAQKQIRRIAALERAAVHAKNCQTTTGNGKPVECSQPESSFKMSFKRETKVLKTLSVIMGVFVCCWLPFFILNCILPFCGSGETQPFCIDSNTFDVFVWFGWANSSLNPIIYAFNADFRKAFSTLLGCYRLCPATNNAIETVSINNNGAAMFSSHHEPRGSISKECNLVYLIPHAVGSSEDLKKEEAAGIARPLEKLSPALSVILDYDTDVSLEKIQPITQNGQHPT
# T8 sequence (P34969 whole entry): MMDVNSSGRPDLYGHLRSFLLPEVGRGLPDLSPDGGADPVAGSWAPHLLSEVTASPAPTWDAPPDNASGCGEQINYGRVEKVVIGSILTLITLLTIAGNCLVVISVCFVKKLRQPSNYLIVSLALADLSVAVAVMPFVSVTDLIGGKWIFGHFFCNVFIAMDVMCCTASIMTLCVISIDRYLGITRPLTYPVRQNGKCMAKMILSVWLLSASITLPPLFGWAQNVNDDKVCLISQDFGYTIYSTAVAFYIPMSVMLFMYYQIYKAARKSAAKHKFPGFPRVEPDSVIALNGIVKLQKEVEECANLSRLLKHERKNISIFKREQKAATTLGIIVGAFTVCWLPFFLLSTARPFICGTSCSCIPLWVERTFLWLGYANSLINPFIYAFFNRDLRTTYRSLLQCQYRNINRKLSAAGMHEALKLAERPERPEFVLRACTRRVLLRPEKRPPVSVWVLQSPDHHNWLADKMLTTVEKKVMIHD
# T6 sequence (P28223 whole entry): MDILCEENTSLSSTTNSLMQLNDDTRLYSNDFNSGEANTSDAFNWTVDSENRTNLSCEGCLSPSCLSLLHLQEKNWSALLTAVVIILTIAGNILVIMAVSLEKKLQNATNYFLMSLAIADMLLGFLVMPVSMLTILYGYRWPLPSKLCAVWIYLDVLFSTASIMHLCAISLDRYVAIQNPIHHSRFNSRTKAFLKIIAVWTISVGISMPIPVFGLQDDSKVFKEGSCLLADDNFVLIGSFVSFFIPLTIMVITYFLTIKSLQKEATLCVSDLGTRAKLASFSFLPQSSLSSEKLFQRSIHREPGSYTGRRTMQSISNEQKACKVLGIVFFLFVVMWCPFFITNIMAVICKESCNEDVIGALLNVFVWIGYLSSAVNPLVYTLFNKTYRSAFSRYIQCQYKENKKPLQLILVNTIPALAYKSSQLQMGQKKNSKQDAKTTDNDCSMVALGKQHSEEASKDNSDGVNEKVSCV
SMILES,pIC50 [1],inhibition at 10 µM [1],inhibition at 10 µM [2],inhibition at 10 µM [3],inhibition at 10 µM [4],inhibition at 10 µM [5],inhibition at 10 µM [6],inhibition at 10 µM [7],inhibition at 10 µM [8],inhibition at 10 µM [9],melting point,5-HT6 affinity compared with known selective antagonists [1]
"CC1(c2ccccc2)C(=O)Nc2cc(Cl)ccc2C1=O (stereo not drawn) [Example 3, 7-chloro-3-methyl-3-phenyl-1H-quinoline-2,4-dione]",5.61,69%,25.5%,4.9%,10.9%,0%,40.2%,12%,8.9%,7%,174 to 175 °C,–
"CC1(c2ccccc2)C(=O)Nc2cc(Br)cc(Br)c2C1=O (stereo not drawn) [Example 4, 5,7-dibromo-3-methyl-3-phenyl-1H-quinoline-2,4-dione]",6.49,70.9%,23.7%,3%,15.8%,0%,11.7%,13.6%,29.8%,13%,202 to 203 °C,–
"COc1cc(Cl)cc2c1C(=O)C(C)(c1ccccc1)C(=O)N2 (stereo not drawn) [Example 6, 7-chloro-5-methoxy-3-methyl-3-phenyl-1H-quinoline-2,4-dione]",6.37,68.3%,31.1%,29.7%,23%,1.6%,65.8%,10.6%,13.5%,19.5%,267 to 269 °C,–
"CC1(c2ccccc2)C(=O)Nc2cc(Cl)c(Cl)cc2C1=O (stereo not drawn) [Example 9, 6,7-dichloro-3-methyl-3-phenyl-1H-quinoline-2,4-dione]",5.98,71.2%,26.2%,8.2%,10.8%,0%,45.2%,16.6%,30.4%,10.8%,213 to 214 °C,–
"CN(C)c1cc(Cl)c2c(c1)NC(=O)C(C)(c1ccccc1)C2=O (stereo not drawn) [Example 11, 5-chloro-7-dimethylamino-3-methyl-3-phenyl-1H-quinoline-2,4-dione]",5.93,70.7%,40.5%,19.3%,20.5%,0.4%,49.5%,30.4%,20%,35.2%,224 to 226 °C,–
"COc1ccc(C2(C)C(=O)Nc3cc(Cl)cc(Cl)c3C2=O)cc1 (stereo not drawn) [Example 12, 5,7-dichloro-3-(4-methoxy-phenyl)-3-methyl-1H-quinoline-2,4-dione]",6.04,73.3%,15.7%,16.3%,24%,0%,40.2%,8.5%,5.7%,23.1%,210 to 212 °C,almost same affinities as or better affinities than known selective antagonists
"CC1(c2ccc(Br)cc2)C(=O)Nc2cc(Cl)cc(Cl)c2C1=O (stereo not drawn) [Example 18, 3-(4-bromo-phenyl)-5,7-dichloro-3-methyl-1H-quinoline-2,4-dione]",6.31,73.8%,37.7%,16%,12.5%,0%,8%,16.9%,10.7%,7.8%,237 to 238 °C,–
"CC1(c2cccc(OCc3ccccc3)c2)C(=O)Nc2cc(Cl)cc(Cl)c2C1=O (stereo not drawn) [Example 19, 3-(3-benzyloxy-phenyl)-5,7-dichloro-3-methyl-1H-quinoline-2,4-dione]",6.87,74.9%,92.6%,37.8%,37.4%,0%,88.8%,67.3%,0%,69.5%,201 to 203 °C,–
"CC1(c2cccc(O)c2)C(=O)Nc2cc(Cl)cc(Cl)c2C1=O (stereo not drawn) [Example 20, 3-(3-hydroxy-phenyl)-5,7-dichloro-3-methyl-1H-quinoline-2,4-dione]",7.31,91.7%,64.6%,10.9%,13.2%,0%,0%,46.1%,4.7%,29.2%,248 °C (dec.),almost same affinities as or better affinities than known selective antagonists
"COc1ccc(C2(C)C(=O)Nc3cc(Cl)cc(Cl)c3C2=O)cc1[N+](=O)[O-] (stereo not drawn) [Example 21, 5,7-dichloro-3-(4-methoxy-3-nitro-phenyl)-3-methyl-1H-quinoline-2,4-dione]",5.91,73.7%,40.2%,10.5%,16.4%,0%,15.9%,16.3%,10.8%,0%,255 to 256 °C,–
"CC1(c2ccc(O)c([N+](=O)[O-])c2)C(=O)Nc2cc(Cl)cc(Cl)c2C1=O (stereo not drawn) [Example 22, 5,7-dichloro-3-(4-hydroxy-3-nitro-phenyl)-3-methyl-1H-quinoline-2,4-dione]",6.00,72.5%,35.7%,11.2%,34%,0%,68.7%,50.9%,2.5%,36.3%,239 to 240 °C,–
